Here are results for one molecule from US20230069886A1, “AROMATIC SULPHONAMIDES DERIVATIVES THAT INHIBITS PDI A3, THEIR SYNTHESIS AND USE” (Uniwersytet Jagiellonski, priority 2020, published 2023).

The subject of one data set is MCF-7. In words: MTT antiproliferative assay, 48 h, MCF-7. In kind it is cell-based, human. Particulars: 48-hour exposition, read-out: Cytotoxicity, IC50, μM MCF-7. On the technique in general: Tetrazolium dyes change colour on reduction, which living cells bring about.
In data set [1] the test system is MDA-MB-231 cell transmigration across IL-1β-stimulated hLMVECs. In words: Transendothelial migration of MDA-MB-231 cells across hLMVEC monolayer. In kind it is cell-based, human. Particulars: IL-1β 10 ng/mL (6 hours)-stimulated hLMVECs, 24 h co-culture, FIG. 6. As to the method:
To assess whether compounds of invention, PDI A3-inhibitors are also effective as inhibitors of cancer cell transmigration through endothelium the transmigration assay with MDA-MB-231/lung microvascular endothelium was used as described previously (Stojak et al., 2018). Cell migration was assayed in 24-well, 6.5-mm internal-diameter Transwell plates (8.0 μm pore size; BD Pharmingen). Human lung microvascular endothelial cells (hLMVECs) were seeded into 24-well plates (seeding density 5×10^4 cells/insert) on the upper side of the filter and left to grow to confluence. After confluent monolayer formation, hLMVECs were pre-treated with 10 ng/mL IL-1β for 6 h. Prior to use in transmigration assay, cancer cells were pre-incubated with various concentrations (3, 10, 30, 50, 100 μM) of tested inhibitors of PDIA3, C-3390, C-3399 for 30 min. Then, MDA-MB-231 cells (each 5×10^4 per well) were placed into upper chambers and tested PDI inhibitors at various concentrations (1, 10, 30, 50, 100 μM) were given. Lower chambers were filled with medium containing chemoattractant (20% FBS or 100 ng/mL SDF-1α). After 24 h of co-culture, hLMVEC monolayers and non-migrating cancer cells on the upper surface of the membrane were removed. […] The cell number was determined by measuring the fluorescence using plate reader. […]

A further data set deals with T1, PDI A3 (Homo sapiens, UniProt P30101).
T1 construct: purchased Mybiosource; host or cells: E. coli
T1 sequence (P30101 25-505): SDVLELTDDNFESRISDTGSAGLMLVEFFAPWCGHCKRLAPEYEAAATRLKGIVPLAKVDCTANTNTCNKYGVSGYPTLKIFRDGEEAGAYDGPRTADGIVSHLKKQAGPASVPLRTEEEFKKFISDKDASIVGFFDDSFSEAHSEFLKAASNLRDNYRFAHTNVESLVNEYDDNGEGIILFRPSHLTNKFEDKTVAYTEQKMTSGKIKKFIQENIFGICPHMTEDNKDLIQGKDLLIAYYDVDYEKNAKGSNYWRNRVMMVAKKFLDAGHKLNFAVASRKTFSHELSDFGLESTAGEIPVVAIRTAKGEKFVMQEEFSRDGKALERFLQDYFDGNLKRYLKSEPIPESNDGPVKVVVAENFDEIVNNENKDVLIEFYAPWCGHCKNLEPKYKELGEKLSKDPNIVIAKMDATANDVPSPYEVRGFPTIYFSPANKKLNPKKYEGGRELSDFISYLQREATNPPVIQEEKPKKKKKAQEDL
Briefly: PDI A3 inhibition, insulin turbidimetric assay. The data set is classed as biochemical. Particulars: 10 ug/ml PDI A3, incubated 60 min at 37° C., turbidity at 650 nm; read-out: Inhibition of PDI A3 (EC 50). Summed up:
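Recombinant E. coli-expressed PDIA3 (10 ug/ml) was preincubated with compound for 60 min at 37° C in 0.1 mM phosphate buffer pH 7.6, 1 mM EDTA, 0.087 mM DTT. Reaction was started with insulin (0.15 mM final) and DTT (0.174 mM final). Insulin reduction was followed as turbidity at 650 nm over 120-s recordings, against reference samples without PDI.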

In general, IC50 refers to the concentration that inhibits the measured activity by half. Take `COC(=O)C1CN1S(=O)(=O)c1ccc2c(C=O)c(N(C)C)ccc2c1` (stereo not drawn) [Compound C-3390, Methyl 1-[[6-(dimethylamino)-5-formyl-2-naphthyl]sulfonyl]aziridine-2-calboxylate]: the IC50 in the data set with MCF-7 was determined as 20 ± 0.3 µM. Also, the “Inhibition of MDA-MB-231 cell transmigration” value in data set [1] was “inhibited MDA-MB-231 cell transmigration”. Besides, the EC50 at PDI A3 turned out to be 4 µM.
